In ChEMBL document CHEMBL2311509, “Synthesis and antiproliferative evaluation of 3-phenylquinolinylchalcone derivatives against non-small cell lung cancers and breast cancers” (Eur J Med Chem, 2013):
Activity calls are given as the source filed them. The rule behind the calls is not given here.

How the values were obtained:
[1] = Antiproliferative activity against human H184B5F5/M10 cells after 72 hrs by XTT assay; assay type: functional, cell-based; conditions: H184B5F5/M10, 72 h
[2] = tested on: SK-BR-3; assay: Antiproliferative activity against human SKBR3 cells after 72 hrs by XTT assay; assay type: functional, cell-based; conditions: SK-BR-3, 72 h
[3] = tested on: MDA-MB-231; assay: Antiproliferative activity against human MDA-MB-231 cells after 72 hrs by XTT assay; assay type: functional, cell-based; conditions: MDA-MB-231, 72 h
[4] = tested on: MCF7; assay: Antiproliferative activity against human MCF7 cells after 72 hrs by XTT assay; assay type: functional, cell-based; conditions: MCF7, 72 h
[5] = tested on: A549; assay: Antiproliferative activity against human A549 cells after 72 hrs by XTT assay; assay type: functional, cell-based; conditions: A549, 72 h
[6] = Antiproliferative activity against human H460 cells after 72 hrs by XTT assay; assay type: functional, cell-based; conditions: NCI-H460, 72 h
[7] = Antiproliferative activity against human H1299 cells after 72 hrs by XTT assay; assay type: functional, cell-based; conditions: NCI-H1299, 72 h
[8] = tested on: MDA-MB-231; assay: Induction of apoptosis in human MDA-MB-231 cells assessed as caspase 3 activation at 0.1 to 1 uM after 24 hrs by immunoblot method; assay type: functional, cell-based
[9] = tested on: MDA-MB-231; assay: Induction of apoptosis in human MDA-MB-231 cells assessed as PARP cleavage at 0.1 to 1 uM after 24 hrs by immunoblot method; assay type: functional, cell-based
[10] = tested on: MDA-MB-231; assay: Induction of morphological changes in human MDA-MB-231 cells at 0.5 uM after 24 hrs by light microscopy; assay type: functional, cell-based
[11] = tested on: MDA-MB-231; assay: Induction of cell cycle arrest in human MDA-MB-231 cells assessed as accumulation at G2/M phase at 1 uM after 24 hrs by flow cytometry (reference value: 22.1 +/- 3.1%); assay type: functional
[12] = tested on: MDA-MB-231; assay: Induction of cell cycle arrest in human MDA-MB-231 cells assessed as accumulation at G2/M phase at 0.5 uM after 24 hrs by flow cytometry (reference value: 22.1 +/- 3.1%); assay type: functional
[13] = tested on: MDA-MB-231; assay: Induction of cell cycle arrest in human MDA-MB-231 cells assessed as accumulation at G2/M phase at 0.1 uM after 24 hrs by flow cytometry (reference value: 22.1 +/- 3.1%); assay type: functional
[14] = tested on: MDA-MB-231; assay: Induction of cell cycle arrest in human MDA-MB-231 cells assessed as accumulation at S phase at 1 uM after 24 hrs by flow cytometry (reference value: 12.4 +/- 2.1%); assay type: functional
[15] = tested on: MDA-MB-231; assay: Induction of cell cycle arrest in human MDA-MB-231 cells assessed as accumulation at S phase at 0.5 uM after 24 hrs by flow cytometry (reference value: 12.4 +/- 2.1%); assay type: functional
[16] = tested on: MDA-MB-231; assay: Induction of cell cycle arrest in human MDA-MB-231 cells assessed as accumulation at S phase at 0.1 uM after 24 hrs by flow cytometry (reference value: 12.4 +/- 2.1%); assay type: functional
[17] = tested on: MDA-MB-231; assay: Induction of cell cycle arrest in human MDA-MB-231 cells assessed as accumulation at G1 phase at 1 uM after 24 hrs by flow cytometry (reference value: 63.1 +/- 2.7%); assay type: functional
[18] = tested on: MDA-MB-231; assay: Induction of cell cycle arrest in human MDA-MB-231 cells assessed as accumulation at G1 phase at 0.5 uM after 24 hrs by flow cytometry (reference value: 63.1 +/- 2.7%); assay type: functional
[19] = tested on: MDA-MB-231; assay: Induction of cell cycle arrest in human MDA-MB-231 cells assessed as accumulation at G1 phase at 0.1 uM after 24 hrs by flow cytometry (reference value: 63.1 +/- 2.7%); assay type: functional
[20] = tested on: MDA-MB-231; assay: Induction of cell cycle arrest in human MDA-MB-231 cells assessed as accumulation at subG1 phase at 1 uM after 24 hrs by flow cytometry (reference value: 3.3 +/- 1.5%); assay type: functional
[21] = tested on: MDA-MB-231; assay: Induction of cell cycle arrest in human MDA-MB-231 cells assessed as accumulation at subG1 phase at 0.5 uM after 24 hrs by flow cytometry (reference value: 3.3 +/- 1.5%); assay type: functional
[22] = tested on: MDA-MB-231; assay: Induction of cell cycle arrest in human MDA-MB-231 cells assessed as accumulation at subG1 phase at 0.1 uM after 24 hrs by flow cytometry (reference value: 3.3 +/- 1.5%); assay type: functional
[23] = tested on: H184B5F5/M10; assay: Antiproliferative activity against human H184B5F5/M10 cells at 0.1 to 5 uM after 12 to 48 hrs by XTT assay; assay type: functional, cell-based
[24] = tested on: MDA-MB-231; assay: Antiproliferative activity against human MDA-MB-231 cells at 0.1 to 5 uM by XTT assay; assay type: functional, cell-based; conditions: TDE = time-dependent effect
[25] = tested on: MDA-MB-231; assay: Antiproliferative activity against human MDA-MB-231 cells after 48 hrs by XTT assay; assay type: functional, cell-based
[26] = tested on: MDA-MB-231; assay: Growth inhibition of human MDA-MB-231 cells; assay type: functional
[27] = Growth inhibition of human H1299 cells; assay type: functional; conditions: NCI-H1299
[28] = Growth inhibition of human Hep3B cells; assay type: functional, Hep 3B2

SMILES | IC50 [2] | IC50 [3] | IC50 [4] | IC50 [5] | IC50 [1] | IC50 [6] | IC50 [7] | also measured
COc1ccc(-c2cc3ccccc3nc2C=O)cc1 | > 10 µM | > 10 µM | > 10 µM | > 10 µM | > 10 µM | > 10 µM | > 10 µM | 
COc1ccc(-c2cc3ccccc3nc2/C=C/C(=O)c2ccc(O)cc2)cc1 | 3.88 µM | 6.35 µM | 6.71 µM | 7.44 µM | 5.69 µM | 6.93 µM | 8.97 µM | 
COc1ccc(-c2cc3ccccc3nc2/C=C/C(=O)c2ccc(N)cc2)cc1 | 8.56 µM | 7.51 µM | 6.92 µM | 7.53 µM | 9.29 µM | 7.4 µM | 6.51 µM | 
COc1ccc(-c2cc3ccccc3nc2/C=C/C(=O)c2sccc2N)cc1 | > 10 µM | > 10 µM | > 10 µM | > 10 µM | > 10 µM | > 10 µM | > 10 µM | 
CC[C@@]1(O)C(=O)OCc2c1cc1n(c2=O)Cc2cc3c(CN(C)C)c(O)ccc3nc2-1 [TOPOTECAN] | 8.91 µM | < 0.1 µM | 5.97 µM |  | > 10 µM | 7.29 µM | 6.02 µM | 
COc1ccc(-c2cc3ccccc3nc2/C=C/C(=O)c2cnc(N)nc2C)cc1 | > 10 µM | > 10 µM | > 10 µM | > 10 µM | > 10 µM | > 10 µM | > 10 µM | 
Fc1ccc2nc(-c3ccc(OCCN4CCCCC4)cc3)c(-c3ccc(OCCN4CCCCC4)cc3)cc2c1 |  |  |  |  |  |  |  | GI50 [26]: 0.72 µM; GI50 [27]: 1.46 µM; GI50 [28]: 0.71 µM
COc1ccc(C(=O)/C=C/c2nc3ccccc3cc2-c2ccc(OC)cc2)cc1 | 9.28 µM | 7.54 µM | 7.38 µM | 8.5 µM | > 10 µM | > 10 µM | 6.42 µM | 
COc1ccc(-c2cc3ccccc3nc2/C=C/C(=O)c2ccc[nH]2)cc1 | > 10 µM | > 10 µM | > 10 µM | > 10 µM | > 10 µM | > 10 µM | > 10 µM | 

Continued by falling IC50 [2], values first:

IC50 [2] | IC50 [3] | IC50 [4] | IC50 [5] | SMILES | IC50 [1] | IC50 [6] | IC50 [7] | also measured
3.83 µM | 5.63 µM | 4.52 µM | 7.41 µM | COc1ccc(-c2cc3ccccc3nc2/C=C/C(=O)c2c(OC)cccc2OC)cc1 | 4.47 µM | 6.63 µM | 4.71 µM | 
3.45 µM | > 10 µM | > 10 µM | > 10 µM | COc1ccc(-c2cc3ccccc3nc2/C=C/C(=O)c2c[nH]c3ccccc23)cc1 | > 10 µM | 8.01 µM | > 10 µM | 
3.26 µM | 4.79 µM | 6.03 µM | 8.86 µM | COc1ccc(-c2cc3ccccc3nc2/C=C/C(=O)c2ccc(OC)c(OC)c2)cc1 | 7.24 µM | 7.54 µM | 1.05 µM | 
2.26 µM | 3.21 µM | 6.26 µM | 7.99 µM | COc1ccc(-c2cc3ccccc3nc2/C=C/C(=O)c2ccc(OC)cc2OC)cc1 | 6.11 µM | 7.04 µM | 3.77 µM | 
0.81 µM | 0.83 µM | 5.45 µM | 8.32 µM | COc1ccc(-c2cc3ccccc3nc2/C=C/C(=O)c2ccc(F)cc2)cc1 | > 10 µM | 6.99 µM | 0.82 µM | 
0.8 µM | 0.41 µM | 1.03 µM | 0.92 µM | COc1ccc(-c2cc3ccccc3nc2/C=C/C(=O)c2cccs2)cc1 | 7.03 µM | 5.44 µM | 0.72 µM | 
0.7 µM | 0.86 µM | 4.04 µM | 7.41 µM | COc1ccc(-c2cc3ccccc3nc2/C=C/C(=O)c2ccccc2)cc1 | 8.56 µM | 6.67 µM | 1.41 µM | 
0.66 µM | 1.06 µM | 6.01 µM | 8.21 µM | COc1ccc(-c2cc3ccccc3nc2/C=C/C(=O)c2ccsc2)cc1 | 6.39 µM | 7.08 µM | 1.22 µM | 
0.64 µM | 0.63 µM | 0.71 µM | 6.13 µM | COc1ccc(-c2cc3ccccc3nc2/C=C/C(=O)c2ccco2)cc1 | 6.24 µM | 6.43 µM | 0.73 µM | 
0.59 µM | 0.84 µM | 4.11 µM | 6.31 µM | COc1ccc(-c2cc3ccccc3nc2/C=C/C(=O)c2ccc([N+](=O)[O-])cc2)cc1 | 6.1 µM | 6.47 µM | 0.77 µM | 
0.52 µM | < 0.1 µM | 0.91 µM | 6.25 µM | COc1ccc(-c2cc3ccccc3nc2/C=C/C(=O)c2ccc(Br)s2)cc1 | 9.38 µM | 5.17 µM | 0.71 µM | Activity [8]: Dose-dependent effect; Activity [9]: Dose-dependent effect; Activity [10]: Active; Activity [11]: 30.1%; Activity [12]: 28.3%; Activity [13]: 25.7%; Activity [14]: 7.2%; Activity [15]: 10.1%; Activity [16]: 13.1%; Activity [17]: 30.1%; Activity [18]: 39.6%; Activity [19]: 54.3%; Activity [20]: 33.4%; Activity [21]: 23.5%; Activity [22]: 8.1%; Activity [23]: inactive; Activity [24]: tde; Activity [25]: Dose-dependent effect
0.47 µM | 0.92 µM | 3.23 µM | 9.52 µM | COc1ccc(-c2cc3ccccc3nc2/C=C/C(=O)c2cc(OC)cc(OC)c2)cc1 | 6.66 µM | 7.52 µM | 0.93 µM | 
0.37 µM | 0.74 µM | 0.81 µM | 6.14 µM | COc1ccc(-c2cc3ccccc3nc2/C=C/C(=O)c2ccccn2)cc1 | 4.14 µM | 6.26 µM | 0.66 µM | 
